US9833455B2, “Preparation and methods of use for ortho-aryl 5-membered heteroaryl-carboxamide containing multi-targeted kinase inhibitors” (Spacefill Enterprises LLC, priority 2011, dated 2017)
Read-outs that look alike come from different tables or passages of the source.

Key:
Assay in all cases: Reaction Biology P33 radiolabeled kinase assay, IC50 and time dependence
Type in all cases: biochemical
P38a/MAPK14 = target: T1, P38a/MAPK14 (Homo sapiens, UniProt Q16539); conditions: for IC50: ATP 10 uM, read-out: Compound IC50* P38a/MAPK14
T1 construct: purchased Reaction Biology Inc (contract assay)
T1 sequence (Q16539 whole entry): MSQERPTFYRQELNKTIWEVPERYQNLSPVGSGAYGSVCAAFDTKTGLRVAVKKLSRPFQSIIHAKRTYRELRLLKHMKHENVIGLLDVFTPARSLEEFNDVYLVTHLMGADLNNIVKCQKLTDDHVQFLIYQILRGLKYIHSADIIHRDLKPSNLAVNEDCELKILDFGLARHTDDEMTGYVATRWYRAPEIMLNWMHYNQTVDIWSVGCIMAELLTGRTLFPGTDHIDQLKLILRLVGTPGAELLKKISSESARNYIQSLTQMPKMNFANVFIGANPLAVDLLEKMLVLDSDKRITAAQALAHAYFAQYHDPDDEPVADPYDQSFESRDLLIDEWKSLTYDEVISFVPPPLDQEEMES
Experimental: (§1) “Inhibiting kinase activity” means to decrease the production of an phosphor-peptide by a particular kinase that can be separated by analytical techniques. For example, a comprehensive platform of kinase, protease, phosphatase and epigenetic assays that utilizes cutting-edge microfluidics and informatics tools to provide accurate and rapid results. Profiling data in this application were determined using these techniques at Nanosyn Inc. IC50 data were provided by Reaction Biology Inc using a P33 radiolabeled kinase assay.
(§2) The observation of potency and isoform selectivity with time-dependency for PI3K-γ appears to be unprecedented in the literature. In addition, these activities combined with inhibition of p38-α, Raf-1, DDR and CSF-1R, would be complimentary and potentially synergistic activities for both the treatment of certain inflammation based conditions and cancers.

PDGFR-α = PDGFR-α (Homo sapiens, UniProt P16234); conditions: for IC50: ATP 10 uM, read-out: Compound IC50* PDGFR-α
Sequence of PDGFR-α (P16234 24-1089): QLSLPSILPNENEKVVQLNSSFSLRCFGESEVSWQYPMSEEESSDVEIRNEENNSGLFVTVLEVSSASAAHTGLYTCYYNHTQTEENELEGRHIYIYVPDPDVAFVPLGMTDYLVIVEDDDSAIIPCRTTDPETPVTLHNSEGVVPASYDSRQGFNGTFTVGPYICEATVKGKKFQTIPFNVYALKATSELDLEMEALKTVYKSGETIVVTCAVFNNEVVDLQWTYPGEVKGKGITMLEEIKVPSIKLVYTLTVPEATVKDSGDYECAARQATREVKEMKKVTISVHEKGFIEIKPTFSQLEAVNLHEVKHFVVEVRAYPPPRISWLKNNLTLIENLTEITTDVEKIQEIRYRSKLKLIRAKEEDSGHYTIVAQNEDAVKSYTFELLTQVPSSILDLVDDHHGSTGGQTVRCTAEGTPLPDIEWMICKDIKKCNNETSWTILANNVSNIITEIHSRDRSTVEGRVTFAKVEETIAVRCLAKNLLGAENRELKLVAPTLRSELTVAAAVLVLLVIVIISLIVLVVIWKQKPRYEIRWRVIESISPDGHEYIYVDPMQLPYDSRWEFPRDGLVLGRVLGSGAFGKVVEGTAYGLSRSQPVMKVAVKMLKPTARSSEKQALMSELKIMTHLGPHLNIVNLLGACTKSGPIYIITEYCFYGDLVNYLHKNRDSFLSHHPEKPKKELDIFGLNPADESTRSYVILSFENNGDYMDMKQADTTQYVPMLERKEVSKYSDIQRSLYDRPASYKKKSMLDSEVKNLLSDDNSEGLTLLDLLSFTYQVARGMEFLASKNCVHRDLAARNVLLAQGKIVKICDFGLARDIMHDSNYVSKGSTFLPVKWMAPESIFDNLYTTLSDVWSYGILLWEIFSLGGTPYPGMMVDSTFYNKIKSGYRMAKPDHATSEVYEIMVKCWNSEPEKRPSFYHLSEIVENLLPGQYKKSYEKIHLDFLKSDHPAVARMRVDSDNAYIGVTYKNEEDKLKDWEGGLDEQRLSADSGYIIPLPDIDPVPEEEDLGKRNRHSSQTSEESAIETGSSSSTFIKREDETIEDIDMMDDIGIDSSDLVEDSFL
Experimental: as §1, §2

DDR2 = target: T2, DDR2 (Homo sapiens, UniProt Q16832); conditions: for IC50: ATP 10 uM, read-out: Compound IC50* DDR2
T2 sequence (Q16832 22-855): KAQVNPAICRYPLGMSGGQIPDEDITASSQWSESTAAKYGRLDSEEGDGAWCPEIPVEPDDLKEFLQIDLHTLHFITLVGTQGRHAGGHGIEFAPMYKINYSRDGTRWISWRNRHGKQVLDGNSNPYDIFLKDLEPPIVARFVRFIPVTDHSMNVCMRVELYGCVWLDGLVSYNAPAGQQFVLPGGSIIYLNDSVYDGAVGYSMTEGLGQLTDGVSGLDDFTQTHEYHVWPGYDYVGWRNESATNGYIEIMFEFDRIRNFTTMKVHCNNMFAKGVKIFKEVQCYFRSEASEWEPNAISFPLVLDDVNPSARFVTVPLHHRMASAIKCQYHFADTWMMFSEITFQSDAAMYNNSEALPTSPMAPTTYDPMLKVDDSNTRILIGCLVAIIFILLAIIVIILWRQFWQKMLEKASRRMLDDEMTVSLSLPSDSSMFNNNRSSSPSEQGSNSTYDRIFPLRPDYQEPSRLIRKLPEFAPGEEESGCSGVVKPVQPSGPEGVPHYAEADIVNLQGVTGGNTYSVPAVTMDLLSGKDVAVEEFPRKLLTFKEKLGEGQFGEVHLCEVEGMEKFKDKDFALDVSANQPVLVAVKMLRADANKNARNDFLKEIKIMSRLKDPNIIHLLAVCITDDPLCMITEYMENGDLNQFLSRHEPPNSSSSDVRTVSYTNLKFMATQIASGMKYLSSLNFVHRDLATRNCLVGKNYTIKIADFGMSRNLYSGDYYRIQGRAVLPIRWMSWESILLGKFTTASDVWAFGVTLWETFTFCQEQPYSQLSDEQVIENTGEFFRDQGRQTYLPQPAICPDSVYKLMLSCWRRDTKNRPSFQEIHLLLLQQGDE
Experimental: as §1, §2

BRAF (V599E) = target: T3, BRAF (V599E) (Homo sapiens, UniProt P15056, V600E); conditions: for IC50: ATP 10 uM, read-out: Compound IC50* BRAF (V599E)
T3 construct: purchased Reaction Biology Inc (contract assay)
T3 sequence (P15056 2-766 V600E): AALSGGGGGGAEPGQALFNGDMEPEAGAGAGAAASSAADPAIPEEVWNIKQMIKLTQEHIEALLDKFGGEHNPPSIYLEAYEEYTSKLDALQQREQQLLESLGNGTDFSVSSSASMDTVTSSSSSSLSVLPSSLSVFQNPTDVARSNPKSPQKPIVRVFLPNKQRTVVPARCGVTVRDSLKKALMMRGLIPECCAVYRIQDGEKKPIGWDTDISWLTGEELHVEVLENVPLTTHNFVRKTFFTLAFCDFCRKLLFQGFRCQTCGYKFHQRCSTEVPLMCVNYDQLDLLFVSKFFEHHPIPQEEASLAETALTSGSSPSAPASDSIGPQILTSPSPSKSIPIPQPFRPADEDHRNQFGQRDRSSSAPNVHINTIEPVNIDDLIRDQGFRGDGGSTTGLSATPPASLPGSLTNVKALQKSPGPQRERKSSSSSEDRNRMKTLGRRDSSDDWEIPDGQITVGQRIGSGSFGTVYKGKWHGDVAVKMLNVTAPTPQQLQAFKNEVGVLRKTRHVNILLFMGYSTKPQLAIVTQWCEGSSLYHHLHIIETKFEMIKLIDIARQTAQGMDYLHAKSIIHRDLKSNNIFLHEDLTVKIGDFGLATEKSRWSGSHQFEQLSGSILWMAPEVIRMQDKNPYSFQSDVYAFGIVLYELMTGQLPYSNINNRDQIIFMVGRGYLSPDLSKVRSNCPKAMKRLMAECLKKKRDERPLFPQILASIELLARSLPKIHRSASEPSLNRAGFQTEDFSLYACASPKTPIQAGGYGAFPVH
Experimental: as §1, §2

c-Kit = target: T4, c-Kit (Homo sapiens, UniProt P10721); conditions: for IC50: ATP 10 uM, read-out: Compound IC50* c-Kit
T4 construct: purchased Reaction Biology Inc (contract assay)
T4 sequence (P10721 26-976): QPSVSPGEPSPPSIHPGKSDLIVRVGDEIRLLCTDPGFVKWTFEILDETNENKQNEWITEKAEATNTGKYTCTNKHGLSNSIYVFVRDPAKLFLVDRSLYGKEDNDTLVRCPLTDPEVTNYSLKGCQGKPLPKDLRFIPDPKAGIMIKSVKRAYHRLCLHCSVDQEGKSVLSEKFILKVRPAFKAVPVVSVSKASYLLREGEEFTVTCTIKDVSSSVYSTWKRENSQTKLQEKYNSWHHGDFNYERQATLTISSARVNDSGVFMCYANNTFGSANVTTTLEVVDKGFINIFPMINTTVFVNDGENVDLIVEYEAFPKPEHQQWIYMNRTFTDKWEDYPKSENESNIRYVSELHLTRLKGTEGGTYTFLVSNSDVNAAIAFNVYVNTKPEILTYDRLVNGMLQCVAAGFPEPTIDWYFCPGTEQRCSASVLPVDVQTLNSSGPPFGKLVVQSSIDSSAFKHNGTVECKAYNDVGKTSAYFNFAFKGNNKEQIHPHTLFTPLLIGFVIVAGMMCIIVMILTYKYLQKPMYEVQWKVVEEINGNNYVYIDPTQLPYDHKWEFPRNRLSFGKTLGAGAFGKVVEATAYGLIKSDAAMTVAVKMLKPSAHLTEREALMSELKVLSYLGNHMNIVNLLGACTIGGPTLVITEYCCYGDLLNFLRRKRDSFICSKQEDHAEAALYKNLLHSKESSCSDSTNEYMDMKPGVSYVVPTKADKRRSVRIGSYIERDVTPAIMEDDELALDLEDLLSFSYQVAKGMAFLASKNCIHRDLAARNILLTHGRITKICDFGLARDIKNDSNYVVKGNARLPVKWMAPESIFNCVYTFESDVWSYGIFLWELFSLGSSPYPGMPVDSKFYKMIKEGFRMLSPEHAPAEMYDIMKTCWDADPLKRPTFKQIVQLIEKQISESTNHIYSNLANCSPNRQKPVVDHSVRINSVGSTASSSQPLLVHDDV
Experimental: as §1, §2

TNK1 = target: T5, TNK1 (Homo sapiens, UniProt Q13470); conditions: for IC50: ATP 10 uM, read-out: Compound IC50* TNK1
T5 construct: purchased Reaction Biology Inc (contract assay)
T5 sequence (Q13470 1-666): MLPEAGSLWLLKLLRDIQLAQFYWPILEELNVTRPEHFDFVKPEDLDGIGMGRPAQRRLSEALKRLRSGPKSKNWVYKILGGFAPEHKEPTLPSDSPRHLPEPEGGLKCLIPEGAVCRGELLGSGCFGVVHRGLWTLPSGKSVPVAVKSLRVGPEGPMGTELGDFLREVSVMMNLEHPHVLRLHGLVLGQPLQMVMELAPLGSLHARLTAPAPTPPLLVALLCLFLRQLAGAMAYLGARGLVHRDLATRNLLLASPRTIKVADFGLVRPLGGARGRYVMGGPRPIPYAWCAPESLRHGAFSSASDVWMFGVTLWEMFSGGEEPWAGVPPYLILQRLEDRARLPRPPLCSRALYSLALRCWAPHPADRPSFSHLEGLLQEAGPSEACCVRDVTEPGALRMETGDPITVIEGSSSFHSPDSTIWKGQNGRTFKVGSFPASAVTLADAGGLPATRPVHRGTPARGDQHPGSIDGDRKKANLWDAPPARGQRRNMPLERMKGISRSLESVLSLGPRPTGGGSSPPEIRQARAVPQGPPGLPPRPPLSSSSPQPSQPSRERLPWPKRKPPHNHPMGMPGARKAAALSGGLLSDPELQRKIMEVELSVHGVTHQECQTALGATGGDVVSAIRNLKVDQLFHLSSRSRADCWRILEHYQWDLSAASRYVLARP
Experimental: as §1, §2

ARAF = target: T6, ARAF (Homo sapiens, UniProt P10398); conditions: for IC50: ATP 10 uM, read-out: Compound IC50* ARAF
T6 construct: purchased Reaction Biology Inc (contract assay)
T6 sequence (P10398 1-606): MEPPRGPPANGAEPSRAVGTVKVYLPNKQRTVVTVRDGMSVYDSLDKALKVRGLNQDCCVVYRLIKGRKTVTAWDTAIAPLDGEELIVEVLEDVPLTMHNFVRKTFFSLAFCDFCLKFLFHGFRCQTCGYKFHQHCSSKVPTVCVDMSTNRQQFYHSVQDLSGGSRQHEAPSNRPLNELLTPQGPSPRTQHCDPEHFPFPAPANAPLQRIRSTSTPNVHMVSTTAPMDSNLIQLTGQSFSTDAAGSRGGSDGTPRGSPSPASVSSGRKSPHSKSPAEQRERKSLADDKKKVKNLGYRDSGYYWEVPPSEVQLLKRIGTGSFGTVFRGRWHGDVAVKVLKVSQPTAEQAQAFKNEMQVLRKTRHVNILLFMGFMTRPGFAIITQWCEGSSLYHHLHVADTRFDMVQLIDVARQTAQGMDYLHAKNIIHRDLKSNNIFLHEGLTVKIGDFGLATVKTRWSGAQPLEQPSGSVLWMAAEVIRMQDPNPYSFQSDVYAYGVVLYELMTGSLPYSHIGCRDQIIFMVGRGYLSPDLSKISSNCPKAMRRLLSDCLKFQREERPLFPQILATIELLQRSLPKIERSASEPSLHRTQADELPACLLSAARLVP
Experimental: as §1, §2

BRAF = target: T7, BRAF (Homo sapiens, UniProt P15056); conditions: for IC50: ATP 10 uM, read-out: Compound IC50* BRAF
T7 construct: literature Ambit Biosciences
T7 sequence (P15056 whole entry): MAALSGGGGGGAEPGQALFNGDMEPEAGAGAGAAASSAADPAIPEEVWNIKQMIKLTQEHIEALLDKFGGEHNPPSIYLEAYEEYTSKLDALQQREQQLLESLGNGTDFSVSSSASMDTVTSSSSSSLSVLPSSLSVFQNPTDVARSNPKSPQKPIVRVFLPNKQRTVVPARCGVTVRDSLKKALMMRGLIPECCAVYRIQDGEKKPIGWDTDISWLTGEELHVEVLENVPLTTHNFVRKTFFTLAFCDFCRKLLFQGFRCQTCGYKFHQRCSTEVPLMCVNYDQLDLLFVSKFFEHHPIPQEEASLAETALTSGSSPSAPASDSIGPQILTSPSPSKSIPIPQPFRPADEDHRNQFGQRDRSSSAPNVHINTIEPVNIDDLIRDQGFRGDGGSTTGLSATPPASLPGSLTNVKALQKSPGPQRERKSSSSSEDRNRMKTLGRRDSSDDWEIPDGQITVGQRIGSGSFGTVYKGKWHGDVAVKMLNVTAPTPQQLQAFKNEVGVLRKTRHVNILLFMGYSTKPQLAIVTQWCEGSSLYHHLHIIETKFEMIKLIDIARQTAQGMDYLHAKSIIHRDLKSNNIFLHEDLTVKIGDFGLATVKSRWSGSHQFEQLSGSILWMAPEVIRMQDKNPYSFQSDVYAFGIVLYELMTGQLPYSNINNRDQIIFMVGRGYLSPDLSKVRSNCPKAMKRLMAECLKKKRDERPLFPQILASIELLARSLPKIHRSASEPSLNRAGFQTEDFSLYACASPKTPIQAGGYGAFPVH
Experimental: as §1, §2

**Q.** `Cc1ccc(NC(=O)c2nc(S(C)(=O)=O)[nH]c2-c2ccc(F)cc2)cc1Nc1nccc(-c2cccnc2)n1` [Inhibitor I-14, 3-(4-(pyridin-3-yl)-pyrimidinyl-2-yl)amino-4-methyl-analine, 5-(4-Fluorophenyl)-2-(methylsulfonyl)-1H-imidazole-4-carboxamide] was tested. Which “Time Dependence Observed? P38a/MAPK14” value (P38a/MAPK14; 15 vs 60 Min preincubation) did it give?
**A.** Its value is “No”.

**Q.** And the IC50 (P38a/MAPK14; preincubation 15 Min)?
**A.** The IC50 was 150 nM.

**Q.** And the IC50 (P38a/MAPK14; preincubation 60 Min)?
**A.** The IC50 was 150 nM.

**Q.** What about the “Time Dependence Observed? PDGFR-α” value (PDGFR-α; 15 vs 60 Min preincubation) of the same molecule?
**A.** The value was “No”.

**Q.** What about the IC50 (PDGFR-α; preincubation 15 Min) of the same molecule?
**A.** Its IC50 is 178 nM.

**Q.** And the IC50 (PDGFR-α; preincubation 60 Min)?
**A.** The IC50 was 342 nM.

**Q.** And the “Time Dependence Observed? DDR2” value (DDR2; 15 vs 60 Min preincubation)?
**A.** The value was “No”.

**Q.** And the IC50 (DDR2; preincubation 15 Min)?
**A.** The IC50 was 222 nM.

**Q.** What about the IC50 (DDR2; preincubation 60 Min) of the same molecule?
**A.** The IC50 was 221 nM.

**Q.** And the “Time Dependence Observed? BRAF (V599E)” value (BRAF (V599E); 15 vs 60 Min preincubation)?
**A.** Its value is “No”.

**Q.** And the IC50 (BRAF (V599E); preincubation 15 Min)?
**A.** Its IC50 is 194 nM.

**Q.** What about the IC50 (BRAF (V599E); preincubation 60 Min) of the same molecule?
**A.** Its IC50 is 194 nM.

**Q.** And the “Time Dependence Observed? c-Kit” value (c-Kit; 15 vs 60 Min preincubation)?
**A.** Its value is “No”.

**Q.** What about the IC50 (c-Kit; preincubation 15 Min) of the same molecule?
**A.** Its IC50 is 772 nM.

**Q.** And the IC50 (c-Kit; preincubation 60 Min)?
**A.** The IC50 was 987 nM.

**Q.** And the “Time Dependence Observed? TNK1” value (TNK1; 15 vs 60 Min preincubation)?
**A.** Its value is “No”.

**Q.** What about the IC50 (TNK1; preincubation 15 Min) of the same molecule?
**A.** The IC50 was 210 nM.

**Q.** What about the IC50 (TNK1; preincubation 60 Min) of the same molecule?
**A.** The IC50 was 241 nM.

**Q.** What about the “Time Dependence Observed? ARAF” value (ARAF; 15 vs 60 Min preincubation) of the same molecule?
**A.** The value was “Yes”.

**Q.** And the IC50 (ARAF; preincubation 15 Min)?
**A.** The IC50 was 1390 nM.

**Q.** What about the IC50 (ARAF; preincubation 60 Min) of the same molecule?
**A.** Its IC50 is 1300 nM.

**Q.** What about the “Time Dependence Observed? BRAF” value (BRAF; 15 vs 60 Min preincubation) of the same molecule?
**A.** The value was “Yes”.

**Q.** And the IC50 (BRAF; preincubation 15 Min)?
**A.** The IC50 was 388 nM.

**Q.** What about the IC50 (BRAF; preincubation 60 Min) of the same molecule?
**A.** Its IC50 is 323 nM.
